Laboratory results published in paper PMC5120204, “Identification of an orally active small-molecule PTHR1 agonist for the treatment of hypoparathyroidism” (Nature Communications, 2016).
Read-outs that look alike come from different tables or passages of the source.

Assays:
hPTHR1-delNT = target: T1, hPTHR1-delNT (Homo sapiens, UniProt Q03431); assay: cAMP production assay in COS-7 cells expressing hPTHR1-delNT; format: cell-based; details: COS-7 cells transfected with hPTHR1-delNT
T1 construct: HA + tetraglycine linker (YPYDVPDYA-GGGG); expressed in transfected cells; host or cells: COS-7 (transient)
T1 sequence (Q03431 with tags, fused parts or gaps): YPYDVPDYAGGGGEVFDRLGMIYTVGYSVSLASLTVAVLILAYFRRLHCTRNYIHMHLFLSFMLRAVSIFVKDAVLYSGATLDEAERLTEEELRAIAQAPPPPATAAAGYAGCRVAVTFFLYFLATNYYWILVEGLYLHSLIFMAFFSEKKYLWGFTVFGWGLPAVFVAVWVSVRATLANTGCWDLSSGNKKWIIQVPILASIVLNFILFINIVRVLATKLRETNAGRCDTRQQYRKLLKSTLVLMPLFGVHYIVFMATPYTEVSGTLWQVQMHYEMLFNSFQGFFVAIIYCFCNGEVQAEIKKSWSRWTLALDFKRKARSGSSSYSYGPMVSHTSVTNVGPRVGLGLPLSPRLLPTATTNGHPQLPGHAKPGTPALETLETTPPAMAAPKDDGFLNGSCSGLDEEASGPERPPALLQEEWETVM

endogenous rat PTHR1 = target: T2, endogenous rat PTHR1 (Rattus norvegicus, UniProt P25961); assay: cAMP production in UMR-106 cells; format: cell-based
T2 construct: UMR-106 cells, which natively express rat PTHR1; endogenous in cells; host or cells: UMR-106 (ATCC)
T2 sequence (P25961 27-591): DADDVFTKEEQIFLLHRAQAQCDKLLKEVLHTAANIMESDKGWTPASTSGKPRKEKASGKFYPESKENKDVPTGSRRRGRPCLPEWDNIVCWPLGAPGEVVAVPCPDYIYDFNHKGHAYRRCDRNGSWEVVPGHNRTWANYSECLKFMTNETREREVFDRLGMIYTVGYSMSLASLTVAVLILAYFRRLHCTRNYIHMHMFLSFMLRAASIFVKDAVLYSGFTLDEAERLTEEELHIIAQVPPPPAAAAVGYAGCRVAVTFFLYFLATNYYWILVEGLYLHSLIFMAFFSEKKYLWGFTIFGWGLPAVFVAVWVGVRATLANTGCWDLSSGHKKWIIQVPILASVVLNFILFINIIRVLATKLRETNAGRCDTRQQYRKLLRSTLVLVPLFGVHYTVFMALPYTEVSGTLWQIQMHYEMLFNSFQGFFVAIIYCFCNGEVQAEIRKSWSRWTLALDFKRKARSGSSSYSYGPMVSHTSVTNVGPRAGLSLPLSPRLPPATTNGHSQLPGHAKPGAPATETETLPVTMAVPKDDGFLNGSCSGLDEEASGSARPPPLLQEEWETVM

fetal rat long bones = assay: Fetal rat long bone cultures, 45Ca release; format: cell-based; details: organ culture
Method: Bone-resorbing activity was assessed by fetal rat long bone cultures. ^45CaCl2 (1,480 kBq, PerkinElmer) was subcutaneously injected into a pregnant Crl:CD(SD) rat (Charles River Laboratories) on its 18th day of gestation. At 48 h after the injection, the pregnant rat was euthanized, and the ulnae and radial bones were isolated from euthanized fetal rats. The long bones were placed on nylon mesh and covered with paraffin paper, and a floating culture in BGJb medium (Life Technologies) containing antibiotic–antimycotic (× 1, Life Technologies) was carried out for 3 days at 37 °C in 95% air and 5% CO2 atmosphere. On the 4th day, the medium was replaced with fresh BGJb medium containing hPTH(1–34) (1 nmol l^−1 to 1 μmol l^−1) or PCO371 (0.1 nmol l^−1 to 3 μmol l^−1) or vehicle (0.1% DMSO and 0.1 mmol l^−1 acetic acid at final concentration) and cultured for a further 4 days at 37 °C. Bone samples were then treated with 10% TCA (500 μl/bone) overnight at 37 °C. Radioactivity of the bone and the medium samples was measured. Four to five long bones were used for each individual dose. ^45Ca release (%) was calculated by the following formula (equation (4)): […]

[1] = Pharmacokinetics in TPTX rats; format: in vivo, rat; details: female, Crl:CD(SD), rat, plasma, po

Cc1cc(N2C(=O)NC(=O)C2(C)C)cc(C)c1CCS(=O)(=O)N1CCC2(CC1)N=C(c1ccc(OC(F)(F)F)cc1)NC2=O [PCO371, 1-{3,5-dimethyl-4-[2-({4-oxo-2-[4-(trifluoromethoxy)phenyl]-1,3,8-triazaspiro[4.5]dec-1-en-8-yl}sulfonyl)ethyl]phenyl}-5,5-dimethylimidazolidine-2,4-dione]
EC50 (hPTHR1-delNT): 2.5 µM | cAMP production (endogenous rat PTHR1; 1 μmol l^−1, 20 min): did not induce cAMP production | cAMP production (endogenous rat PTHR1; 20 min): induced cAMP production | concentration able to stimulate 45Ca release from prelabeled bones (fetal rat long bones): ≥ 1 µmol/L | half-life ([1]; p.o. 2 mg kg-1): 6.9 ± 2.3 h | AUC ([1]; p.o. 2 mg kg-1, read-out: AUC): 464 ± 125 ng·h/mL | Cmax ([1]; p.o. 2 mg kg-1, read-out: Cmax): 95.6 ± 84.4 ng/mL | Tmax ([1]; p.o. 2 mg kg-1, read-out: Tmax): 1.4 ± 1 h | half-life ([1]; p.o. 6 mg kg-1): 4.9 ± 0.6 h | AUC ([1]; p.o. 6 mg kg-1, read-out: AUC): 1590 ng·h/mL | Cmax ([1]; p.o. 6 mg kg-1, read-out: Cmax): 216 ± 103 ng/mL | Tmax ([1]; p.o. 6 mg kg-1, read-out: Tmax): 1.3 ± 0.6 h | half-life ([1]; p.o. 18 mg kg-1): 4.7 ± 0.7 h | AUC ([1]; p.o. 18 mg kg-1, read-out: AUC): 9210 ng·h/mL | Cmax ([1]; p.o. 18 mg kg-1, read-out: Cmax): 1630 ng/mL | Tmax ([1]; p.o. 18 mg kg-1, read-out: Tmax): 3.7 ± 3.8 h
